Laboratory results as given in ChEMBL document CHEMBL1141172, “Fragment-based lead discovery using X-ray crystallography” (J Med Chem, 2005).

Target: T1, Tyrosine-protein phosphatase non-receptor type 1 (Homo sapiens) (UniProt P18031)
T1 sequence (whole entry): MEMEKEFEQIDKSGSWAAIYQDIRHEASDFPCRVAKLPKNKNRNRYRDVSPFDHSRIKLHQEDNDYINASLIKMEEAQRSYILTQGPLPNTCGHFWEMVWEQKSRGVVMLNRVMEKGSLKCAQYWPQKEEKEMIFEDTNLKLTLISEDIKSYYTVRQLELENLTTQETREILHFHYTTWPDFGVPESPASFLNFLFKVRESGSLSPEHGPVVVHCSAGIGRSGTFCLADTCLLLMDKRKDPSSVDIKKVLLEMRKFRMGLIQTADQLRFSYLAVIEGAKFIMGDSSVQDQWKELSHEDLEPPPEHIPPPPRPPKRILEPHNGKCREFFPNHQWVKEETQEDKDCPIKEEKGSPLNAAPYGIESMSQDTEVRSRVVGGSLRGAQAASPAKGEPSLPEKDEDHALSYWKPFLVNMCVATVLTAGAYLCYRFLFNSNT
Assay: Binding affinity for protein tyrosine phosphatase 1B

## NCc1ccc(NC(=O)C(=O)O)cc1
  Affinity: 86 µM
